Activity calls are given as the source filed them. The rule behind the calls is not given here.
Assays:
[1] = system: MCF7; test: Anticancer activity against human MCF7 cells incubated for 24 hrs by MTT assay; assay type: functional, cell-based; conditions: MCF7, 24 h
[2] = system: Caco-2; test: Induction of apoptosis in human Caco-2 cells assessed as viable cells incubated at 0.11 uM for 72 hrs by annexin V-FITC based propidium iodide dual staining assay (reference value: 99.89%); assay type: functional; conditions: read-out: Activity
[3] = system: Caco-2; test: Induction of apoptosis in human Caco-2 cells assessed as caspase3/7 activation at 0.11 uM using caspase-glo 3/7 as substrate relative to control; assay type: functional
[4] = system: HepG2; test: Anticancer activity against human HepG2 cells incubated for 24 hrs by MTT assay; assay type: functional, cell-based; conditions: HepG2, 24 h
[5] = system: Caco-2; test: Anticancer activity against human Caco-2 cells assessed as absence of normal spindle shape incubated at 0.11 uM for 72 hrs by phase contrast inverted microscopic analysis; assay type: functional, cell-based
[6] = system: MCF7; test: Induction of apoptosis in human MCF7 cells assessed as total apoptotic cells incubated at 0.11 uM for 72 hrs by annexin V-FITC based propidium iodide dual staining assay (reference value: 0.04 %); assay type: functional
[7] = system: HepG2; test: Anticancer activity against human HepG2 cells assessed as cell shrinkage incubated at 0.11 uM for 72 hrs by phase contrast inverted microscopic analysis; assay type: functional, cell-based
[8] = system: dsDNA; test: Induction of damage in dsDNA (unknown origin) assessed as DNA disruption by measuring damage constant at 100 uM incubated for 2.5 hrs by EvaGreen based fluorescence plate reader analysis; assay type: nucleic-acid assay
[9] = system: MCF7; test: Anticancer activity against human MCF7 cells assessed as smaller cells incubated at 0.11 uM for 72 hrs by phase contrast inverted microscopic analysis; assay type: functional, cell-based
[10] = system: UMUC3; test: Anti-clonogenicic activity in human UC3 cells assessed as reduction of colony formation at 5 uM for 24 hrs by crystal violet based staining relative to control; assay type: functional; design: scale not given: the % may be the effect or the level left
[11] = system: MCF7; test: Induction of cell cycle arrest in human MCF7 cells assessed as accumulation of cells at sub-G0/G1 phase incubated for 24 hrs; assay type: functional, cell-based
[12] = system: HepG2; test: Induction of apoptosis in human HepG2 cells assessed as total apoptotic cells incubated at 0.017 uM for 72 hrs by annexin V-FITC based propidium iodide dual staining assay (reference value: 0.99 +/- 0.02%); assay type: functional
[13] = system: Caco-2; test: Induction of apoptosis in human Caco-2 cells assessed as viable cells by measuring green uniform patch incubated at 0.017 uM for 72 hrs by acridine orange-ethidium bromide dual staining based fluorescence microscopic analysis; assay type: functional, cell-based
[14] = system: Caco-2; test: Induction of apoptosis in human Caco-2 cells assessed as viable cells incubated at 0.017 uM for 72 hrs by annexin V-FITC based propidium iodide dual staining assay (reference value: 99.89%); assay type: functional; conditions: read-out: Activity
[15] = system: MCF7; test: Induction of apoptosis in human MCF7 cells assessed as viable cells incubated at 0.017 uM for 72 hrs by annexin V-FITC based propidium iodide dual staining assay (reference value: 99.9%); assay type: functional; conditions: read-out: Activity
[16] = system: Caco-2; test: Induction of apoptosis in human Caco-2 cells assessed as caspase3/7 activation at 0.017 uM using caspase-glo 3/7 as substrate relative to control; assay type: functional
[17] = system: Caco-2; test: Induction of apoptosis in human Caco-2 cells assessed as necrotic cells incubated at 0.017 uM for 72 hrs by annexin V-FITC based propidium iodide dual staining assay (reference value: 0.02%); assay type: functional
[18] = system: HepG2; test: Induction of apoptosis in human HepG2 cells assessed as caspase3/7 activation at 0.017 uM using caspase-glo 3/7 as substrate relative to control; assay type: functional
[19] = system: HeLa; test: Induction of apoptosis in human HeLa cells assessed as total apoptotic cells incubated at 0.098 uM for 72 hrs by annexin V-FITC based propidium iodide dual staining assay (reference value: 0 +/- 0.035%); assay type: functional
[20] = system: Caco-2; test: Induction of apoptosis in human Caco-2 cells assessed as total apoptotic cells incubated at 0.098 uM for 72 hrs by annexin V-FITC based propidium iodide dual staining assay (reference value: 0.04 +/- 0.005%); assay type: functional
[21] = system: Caco-2; test: Anticancer activity against human Caco-2 cells assessed as cell shrinkage incubated at 0.098uM for 72 hrs by phase contrast inverted microscopic analysis; assay type: functional, cell-based
[22] = system: MCF7; test: Induction of apoptosis in human MCF7 cells assessed as early apoptotic cells by measuring bright green patch incubated at 0.098 uM for 72 hrs by acridine orange-ethidium bromide dual staining based fluorescence microscopic analysis; assay type: functional, cell-based
[23] = system: HepG2; test: Induction of apoptosis in human HepG2 cells assessed as early apoptotic cells by measuring bright green patch incubated at 0.098 uM for 72 hrs by acridine orange-ethidium bromide dual staining based fluorescence microscopic analysis; assay type: functional, cell-based
[24] = system: HeLa; test: Induction of apoptosis in human HeLa cells assessed as pro-oxidant effect by measuring free radical generation measured at 0.098 uM after 72 hrs; assay type: functional, cell-based
[25] = system: HeLa; test: Induction of apoptosis in human HeLa cells assessed as late apoptotic cells incubated at 0.098 uM for 72 hrs by annexin V-FITC based propidium iodide dual staining assay (reference value: 0%); assay type: functional
[26] = system: Caco-2; test: Anticancer activity against human Caco-2 cells assessed as round cells incubated at 0.098uM for 72 hrs by phase contrast inverted microscopic analysis; assay type: functional, cell-based
[27] = system: MCF7; test: Induction of apoptosis in human MCF7 cells assessed as total apoptotic cells incubated at 0.098 uM for 72 hrs by annexin V-FITC based propidium iodide dual staining assay (reference value: 0.04 %); assay type: functional
[28] = system: MCF7; test: Anticancer activity against human MCF7 cells assessed as round cells incubated at 0.098uM for 72 hrs by phase contrast inverted microscopic analysis; assay type: functional, cell-based
[29] = system: MCF7; test: Induction of apoptosis in human MCF7 cells assessed as viable cells incubated at 0.098 uM for 72 hrs by annexin V-FITC based propidium iodide dual staining assay (reference value: 99.9%); assay type: functional; conditions: read-out: Activity
[30] = system: HeLa; test: Anticancer activity against human HeLa cells assessed as losing contact with neighbouring cells incubated at 0.098uM for 72 hrs by phase contrast inverted microscopic analysis; assay type: functional, cell-based
[31] = system: HeLa; test: Induction of apoptosis in human HeLa cells assessed as viable cells incubated at 0.098 uM for 72 hrs by annexin V-FITC based propidium iodide dual staining assay (reference value: 97.23%); assay type: functional; conditions: read-out: Activity
[32] = system: HepG2; test: Induction of apoptosis in human HepG2 cells assessed as late apoptotic cells by measuring orange to red patch incubated at 0.097 uM for 72 hrs by acridine orange-ethidium bromide dual staining based fluorescence microscopic analysis; assay type: functional, cell-based
[33] = system: HeLa; test: Anticancer activity against human HeLa cells assessed as absence of normal spindle shape incubated at 0.097uM for 72 hrs by phase contrast inverted microscopic analysis; assay type: functional, cell-based
[34] = system: HeLa; test: Anticancer activity against human HeLa cells assessed as round cells incubated at 0.097uM for 72 hrs by phase contrast inverted microscopic analysis; assay type: functional, cell-based
[35] = system: Caco-2; test: Induction of apoptosis in human Caco-2 cells assessed as necrotic cells incubated at 0.097 uM for 72 hrs by annexin V-FITC based propidium iodide dual staining assay (reference value: 0.02%); assay type: functional
[36] = system: MCF7; test: Induction of oxidative stress in human MCF7 cells assessed as cell death by measuring redox alteration fluorescence incubated at 0.11 uM for 72 hrs in presence of dihydro dichlorofluorescein diacetate by DCFH-DA based flow cytometric analysis relative to control; assay type: functional
[37] = system: Caco-2; test: Induction of apoptosis in human Caco-2 cells assessed as early apoptotic cells by measuring bright green patch incubated at 0.097 uM for 72 hrs by acridine orange-ethidium bromide dual staining based fluorescence microscopic analysis; assay type: functional, cell-based

SMILES: C#CCN1C(=O)CN(/N=C/c2ccc([N+](=O)[O-])o2)C1=O
- IC50 [1]: 120 µM
- viability at 0.11 µM [2]: 49.4%
- Activity [3]: 55%
- IC50 [4]: 117 µM
- Activity [5]: Active
- Activity [6]: 38.72%
- Activity [7]: Active
- Activity [8]: 8.41
- Activity [9]: Active
- Activity [10]: 75%
- Activity [11]: Active

SMILES: O=c1[nH]cc(F)c(=O)[nH]1 [FLUOROURACIL]
- Activity [12]: 3.9%
- Activity [13]: Active
- viability at 0.017 µM [14]: 89.7%
- viability at 0.017 µM [15]: 90.9%
- Activity [16]: 12%
- Activity [17]: 0.97%
- Activity [18]: 12%

SMILES: O=C(CN1C(=O)CN(/N=C/c2ccc([N+](=O)[O-])o2)C1=O)c1ccc(Cl)cc1
- Activity [19]: 64.08%
- Activity [20]: 30.95%
- Activity [21]: Active
- Activity [22]: Active
- Activity [23]: Active
- Activity [24]: Active
- Activity [25]: 62.92%
- Activity [26]: Active
- Activity [27]: 41.73%
- Activity [28]: Active
- viability at 0.098 µM [29]: 63.6%
- Activity [30]: Active
- viability at 0.098 µM [31]: 29.8%

SMILES: NS(=O)(=O)c1ccc(-n2cc(CN3C(=O)CN(/N=C/c4ccc([N+](=O)[O-])o4)C3=O)nn2)cc1
- Activity [32]: Active
- Activity [33]: Active
- Activity [34]: Active
- Activity [35]: 13.8%
- Activity [36]: 51.08%
- Activity [37]: Active

Reference: ChEMBL document CHEMBL5380816, “Inclusion of Nitrofurantoin into the Realm of Cancer Chemotherapy via Biology-Oriented Synthesis and Drug Repurposing” (J Med Chem, 2023)
